In brackets after ≈: the same amount, converted by molar mass. Where two headings read alike, the source gives them in different places.
Key:
[1] = cited from earlier work
human platelets = experiment: Platelet aggregation inhibitory activities in vitro (ADP-induced, human platelet-rich plasma); assay type: cell-based; details: for IC50: Homo sapiens, Platelet, ADP final concentration 4 μM, 37° C.; for platelet aggregation inhibitory activities (in words): compared with natural type prostacyclin or other compounds
Experimental: Platelet aggregation inhibitory activities of test compounds in vitro were measured by using human platelets.
Into a plastic container containing one volume of a 3.8% sodium citrate solution, 9 volumes of blood of a healthy person was collected, and the container was gently turned over for admixing. The mixture was centrifugally separated at 1,000 rpm for 10 minutes at room temperature, whereupon the supernatant was taken as a platelet-rich plasma (PRP). The lower layer was further centrifugally separated at 3,000 rpm for 15 minutes at room temperature, whereupon the supernatant was taken as a platelet-poor plasma (PPP). PRP was diluted with PPP so that the number of platelets became about 30×10^4 /μl. An aggregometer was calibrated, and then 200 μl of PRP thus prepared was heated at 37° C. for one minute. Then, 25 μl of a solution obtained by diluting a test compound with a physiological sodium chloride solution, was added thereto, and the mixture was heated at 37° C. for one minute. Then, […] of an adenosine-5'-1.5 sodium diphosphate (ADP, Sigma) solution was added thereto so that the final concentration would be 4 μM, whereby the change in transmittance was recorded by the aggregometer. The transmittance was measured with respect to the solution immediately after dissolving the test compound in the physiological sodium chloride solution and the solution after leaving it at 25° C. for 24 hours. The solution of the test compound was dissolved in a physiological sodium chloride solution and then used by diluting it with a physiological sodium chloride solution.
Aggregation inhibition (%)=(1-T/T0)×100
T0 : Transmittance in the case where the physiological sodium chloride solution was added.
T: Transmittance in the case where the test compound was added.

[2] = Stability test in an aqueous solution; assay type: physicochemical; details: for half-life / remaining at 168 h / remaining at 480 h: physiological saline, 25° C., 10 μg/ml in physiological sodium chloride solution; for remaining at 168 h: 7 days, read-out: Remaining ratio 7 days; for remaining at 480 h: 20 days, read-out: Remaining ratio 20 days
Experimental: A test compound was dissolved in ethanol to a concentration of 1 mg/ml. Then, it was diluted with a physiological sodium chloride solution to obtain a solution having a concentration of 10 μg/ml. The solution was stored at 25° C., and the remaining ratio of the test compound was measured as time passed. The remaining ratio was quantitatively analyzed by an internal standard (methyl benzoate) method using high performance liquid chromatography (Shimadzu LC9A, SPC-6AU; Milipore 805-DS). The column used was YMC AM312 (ODS), and the eluent used was a solvent mixture of acetonitrile and a 1% triethylamine-phosphoric acid buffer solution (pH6.3).

[3] = solution immediately after dissolving, read-out: IC50 Immediately after preparation
[4] = solution left at 25° C. for 24 hours, read-out: IC50 24 hours later

IC50 (human platelets; [3]) [µg/mL] | IC50 (human platelets; [4]) [µg/mL] | half-life [2] [days] | remaining at 168 h [2] [%] | remaining at 480 h [2] [%] | Compound | half-life ([1]; reported in literature) | platelet aggregation inhibitory activities (in words) (human platelets) | physiological activities (in words) (human platelets; stated generally as physiological activities) | chemical stability (in words) [2] | half-life ([1]; as mentioned above, conditions not restated) | half-life in an aqueous solution ([1]; pH7.48 at 25° C.) [days]
0.0086 | 0.0078 | > 90 | 102 | 96.8 | CCCC[C@H](C)C[C@H](O)/C=C/[C@@H]1[C@@H]2[C@H](C[C@H]1O)O/C(=C\CCCC(=O)O)C2(F)F [Compound 11, sodium 5-[(1S,5R,6R,7R)-2-oxa-4,4-difluoro-7-hydroxy-6-{(3S,5S)-3-hydroxy-5-methyl-E-1-nonenyl}bicyclo[3.3.0]octan-3-ylidene]pentanoate] | – | activities close to natural type prostacyclin | – | – | – | –
0.0561 | 0.0604 | > 90 | 99.3 | 97.2 | CCCCC[C@H](O)/C=C/[C@@H]1[C@@H]2[C@H](C[C@H]1O)O/C(=C\CCCC(=O)O)C2(F)F [Compound 19, sodium 5-[(1S,5R,6R,7R)-2-oxa-4,4-difluoro-7-hydroxy-6-{(3S)-3-hydroxy-E-1-octenyl}bicyclo[3.3.0]octan-3-ylidene]pentanoate] | – | – | – | – | – | –
0.059 (≈ 0.142 µM) | 0.0582 (≈ 0.14 µM) | > 90 | 100 | 100 | CCCC[C@H](C)C[C@@H](O)/C=C/[C@@H]1[C@@H]2[C@H](C[C@H]1O)O/C(=C\CCCC(=O)O)C2(F)F [Compound 23] | – | – | – | – | – | –
0.027 | 0.0281 | > 90 | 101 | 99.8 | CCC#CCC(C)[C@@H](O)/C=C/[C@@H]1[C@@H]2[C@H](C[C@H]1O)O/C(=C\CCCC(=O)O)C2(F)F (stereo partly drawn) [Compound 25, sodium 5-[(1S,5R,6R,7R)-2-oxa-4,4-difluoro-7-hydroxy-6-{(3R,4RS)-3-hydroxy-4-methyl-E-1-none-6-ynyl}bicyclo[3.3.0]octan-3-ylidene]pentanoate] | – | – | – | – | – | –
0.0084 (≈ 0.0204 µM) | 0.008 (≈ 0.0194 µM) | > 90 | 99.5 | 100 | CCC#CC[C@H](C)[C@@H](O)/C=C/[C@@H]1[C@@H]2[C@H](C[C@H]1O)O/C(=C\CCCC(=O)O)C2(F)F [Compound 27] | – | activities close to natural type prostacyclin | – | – | – | –
0.0737 | 0.0758 | > 90 | 99.5 | 97 | CCCCC[C@H](O)C#C[C@@H]1[C@@H]2[C@H](C[C@H]1O)O/C(=C\CCCC(=O)O)C2(F)F [Compound 31, sodium 5-[(1S,5R,6R,7R)-2-oxa-4,4-difluoro-7-hydroxy-6-{(3S)-3-hydroxy-1-octynyl}bicyclo[3.3.0]octan-3-ylidene]pentanoate, reference compound] | – | low activities as compared with other compounds | physiological activities are inadequate and substantially lower than natural type prostacyclin | chemical stability substantially equal to other compounds | – | –

The remaining lines, values behind:

Compound | IC50 (human platelets; [3]) [µg/mL] | IC50 (human platelets; [4]) [µg/mL] | half-life [2] [days] | remaining at 168 h [2] [%] | remaining at 480 h [2] [%] | half-life ([1]; reported in literature) | platelet aggregation inhibitory activities (in words) (human platelets) | physiological activities (in words) (human platelets; stated generally as physiological activities) | chemical stability (in words) [2] | half-life ([1]; as mentioned above, conditions not restated) | half-life in an aqueous solution ([1]; pH7.48 at 25° C.) [days]
CCCCC[C@H](O)C#C[C@@H]1[C@H]2C/C(=C/CCCC(=O)O)O[C@H]2C(F)(F)[C@H]1O [10,10-difluoro-13,14-dehydroprostacyclin] | – | – | – | – | – | about 24 hours | – | – | – | – | –
O=C(O)CCC/C=C1\O[C@H]2C[C@@H](O)[C@H](/C=C/[C@@H](O)C3CCCC3)[C@H]2C1(F)F [Compound 13, sodium 5-[(1S,5R,6R,7R)-2-oxa-4,4-difluoro-7-hydroxy-6-{(3S)-3-cyclopentyl-3-hydroxy-E-1-propenyl}bicylco[3.3.0]octan-3-ylidene]pentanoate] | 0.0663 | 0.0629 | > 90 | 100 | 98 | – | – | – | – | – | –
CCC#CCC(C)[C@H](O)/C=C/[C@@H]1[C@@H]2[C@H](C[C@H]1O)O/C(=C\CCCC(=O)O)C2(F)F (stereo partly drawn) [Compound 15, sodium 5-[(1S,5R,6R,7R)-2-oxa-4,4-difluoro-7-hydroxy-6-{(3S,4RS)-3-hydroxy-4-methyl-E-1-nonen-6-ynyl}bicyclo-[3.3.0]octan-3-ylidene]pentanoate] | 0.00079 | 0.00078 | > 90 | 98.9 | 97.8 | – | even higher activities than natural type prostacyclin | – | – | – | –
CCC#CC[C@H](C)[C@H](O)/C=C/[C@@H]1[C@@H]2[C@H](C[C@H]1O)O/C(=C\CCCC(=O)O)C2(F)F [Compound 17, sodium 5-[(1S,5R,6R,7R)-2-oxa-4,4-difluoro-7-hydroxy-6-{(3S,4S)-3-hydroxy-4-methyl-E-1-nonen-6-ynyl}bicyclo[3.3.0]octan-3-ylidene]pentanoate] | 0.00038 | 0.00039 | > 90 | 102 | 100 | – | even higher activities than natural type prostacyclin | – | – | – | –
Cc1cccc(C[C@H](O)/C=C/[C@@H]2[C@@H]3[C@H](C[C@H]2O)O/C(=C\CCCC(=O)O)C3(F)F)c1 [Compound 21, sodium 5-[(1S,5R,6R,7R)-2-oxa-4,4-difluoro-7-hydroxy-6-{(3S)-3-hydroxy-4-(3-methylphenyl)-E-1-butenyl}bicyclo[3.3.0]octan-3-ylidene]pentanoate] | 0.0087 | 0.0089 | > 90 | 101 | 100 | – | – | – | – | – | –
Cc1cccc(C[C@@H](O)/C=C/[C@@H]2[C@@H]3[C@H](C[C@H]2O)O/C(=C\CCCC(=O)O)C3(F)F)c1 [Compound 29, sodium 5-[(1S,5R,6R,7R)-2-oxa-4,4-difluoro-7-hydroxy-6-{(3R)-3-hydroxy-4-(3-methylphenyl)-E-1-butenyl}bicyclo[3.3.0]octan-3-ylidene]pentanoate] | > 0.2 | > 0.2 | > 90 | 99.1 | 99.3 | – | – | – | – | – | –
CCCCC[C@H](O)/C=C/[C@@H]1[C@H]2C/C(=C/CCCC(=O)O)O[C@H]2C[C@H]1O [PGI2 Na, reference compound] | 0.0021 (≈ 0.00596 µM) | > 0.2 | – | – | – | – | – | – | – | – | –
CCCCC[C@H](O)/C=C/[C@@H]1[C@H]2C/C(=C/CCCC(=O)O)O[C@H]2C[C@H]1O [natural type prostacyclin] | – | – | – | – | – | – | – | – | – | about 10 minutes | 0.00729

From patent US5616732A, “Intermediates for difluoroprostacyclins and methods for their production” (Asahi Glass Company Ltd., priority 1994, dated 1997)
